Among the test systems are K562; NCI-H23; OVCAR-3; OVCAR-8; CAKI-1; MCF7; 786-0; HCT-116; OVCAR-4; RPMI-8226; KM12; SF-539; SK-MEL-2; COLO 205; UO-31; HOP-62; U-251; SK-OV-3; MDA-MB-231; UACC-62.
What all share (experiment): NCI anticancer screen, dose series, 48 h

Each structure is given as a SMILES string.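 Each compound was tested at five concentrations against cells in 96-well plates for 48 hours. GI50: concentration for 50% inhibition of growth.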 The source made the active and inactive calls. Rule as the data show it: active = GI50 up to about 1.1 µM and inactive = higher. Where only a bound is given, the exact number is not on record here.

Consider `O=C1Oc2ccccc2C(=O)/C1=C/N1C(=O)N/C(=C\c2ccccc2O)C1=O`, for which the GI50 with K562 is 54.7 µM (inactive); in the assay with NCI-H23, 59.8 µM (inactive); with OVCAR-3, 32.7 µM (inactive); with OVCAR-8, 58.1 µM (inactive); in the assay on CAKI-1 it was 79.4 µM (inactive); in the assay on MCF7, 61.1 µM (inactive). In addition, the GI50 in the assay on 786-0 is 68.7 µM (inactive); in the assay on HCT-116 it was 36.6 µM (inactive); in the assay with OVCAR-4, 55.3 µM (inactive); in the assay with RPMI-8226, 43 µM (inactive); with KM12, 56.8 µM (inactive); in the assay with SF-539, 59.8 µM (inactive). The GI50 is > 56.9 µM (inactive) with SK-MEL-2; 62.5 µM (inactive) with COLO 205; 39 µM (inactive) in the assay with UO-31; 71.3 µM (inactive) in the assay with HOP-62; 57.7 µM (inactive) with U-251; > 62.7 µM (inactive) in the assay with SK-OV-3. Besides, the GI50 in the assay with MDA-MB-231 and in the assay on UACC-62 was 36.9 µM (inactive) in each case.
With `N=C(N)SCc1cccc(-c2nc3ccccc3c(=O)o2)c1`, the GI50 with K562, in the assay on NCI-H23, with OVCAR-3, in the assay on OVCAR-8, in the assay with CAKI-1 and in the assay with MCF7 was > 100 µM (inactive) each time. For the same molecule, the GI50 in the assay with 786-0, in the assay on HCT-116, in the assay with OVCAR-4, in the assay with RPMI-8226, in the assay on KM12 and in the assay with SF-539 was > 100 µM (inactive) throughout. Moreover, the GI50 in the assay on SK-MEL-2, in the assay with COLO 205, in the assay on UO-31, in the assay on HOP-62, with U-251 and in the assay with SK-OV-3 was > 100 µM (inactive) throughout. For the same molecule, the GI50 in the assay on MDA-MB-231 and in the assay with UACC-62 was > 100 µM (inactive) in each case.
Regarding `COC(=O)C#Cc1ccc([N+](=O)[O-])cc1`, the GI50 in the assay with K562 was 2.47 µM (inactive); in the assay on NCI-H23 it was 1.62 µM (inactive); in the assay on OVCAR-3, 1.59 µM (inactive); with OVCAR-8, 2.55 µM (inactive); in the assay on CAKI-1, 1.38 µM (inactive); in the assay with MCF7, 1.91 µM (inactive). Further, the GI50 is 2.32 µM (inactive) with 786-0; 1.15 µM (inactive) in the assay on HCT-116; 1.7 µM (inactive) in the assay with OVCAR-4; 0.665 µM (active) in the assay on RPMI-8226; 1.8 µM (inactive) with KM12; 1.69 µM (inactive) with SF-539. The GI50 was 3.69 µM (inactive) with SK-MEL-2; 1.83 µM (inactive) in the assay on COLO 205; 1.42 µM (inactive) in the assay on UO-31; 2.65 µM (inactive) with HOP-62; 1.88 µM (inactive) in the assay with U-251; 8.32 µM (inactive) in the assay with SK-OV-3. In addition, the GI50 in the assay with MDA-MB-231 was 2.09 µM (inactive); with UACC-62, 2.69 µM (inactive).
With `CCOC(=O)C12C(=O)CCN1CCc1ccccc1C2C` (stereo not given), the GI50 with K562, in the assay on NCI-H23, in the assay with OVCAR-3, with OVCAR-8, with CAKI-1 and with MCF7 was > 100 µM (inactive) throughout. For the same molecule, the GI50 in the assay on 786-0, in the assay with HCT-116, in the assay on OVCAR-4, with RPMI-8226, in the assay with KM12 and in the assay on SF-539 was > 100 µM (inactive) throughout. Also, the GI50 in the assay with SK-MEL-2, with COLO 205, in the assay with UO-31, in the assay with HOP-62, in the assay with U-251 and in the assay on SK-OV-3 was > 100 µM (inactive) throughout. Moreover, the GI50 in the assay on MDA-MB-231 and with UACC-62 was > 100 µM (inactive) throughout.
`COc1ccc(OC)c(N(CN2C(=O)CCC2C(=O)O)C(C)=O)c1` (stereo not given): the GI50 in the assay with K562, in the assay with NCI-H23, in the assay with OVCAR-3, in the assay on OVCAR-8, in the assay on CAKI-1 and in the assay on MCF7 was > 100 µM (inactive) throughout. Also, the GI50 with 786-0, in the assay on HCT-116, in the assay with OVCAR-4, in the assay with RPMI-8226, in the assay with KM12 and in the assay on SF-539 was > 100 µM (inactive) in each case. The GI50 in the assay on SK-MEL-2, in the assay with COLO 205, in the assay with UO-31, in the assay on HOP-62, in the assay on U-251 and in the assay with SK-OV-3 was > 100 µM (inactive) each time. The GI50 with MDA-MB-231 and in the assay with UACC-62 was > 100 µM (inactive) each time.
`[O-][N+]1=C(c2ccccc2)/C(=C2/C(c3ccccc3)=[N+]([O-])c3ccccc32)Cc2ccccc21`: the GI50 with K562 is 19.1 µM (inactive); in the assay on NCI-H23 it was 15.5 µM (inactive); with OVCAR-3 it was 16.8 µM (inactive); with OVCAR-8, 16.6 µM (inactive); in the assay on CAKI-1 it was 22 µM (inactive); in the assay on MCF7, 43.4 µM (inactive). For the same molecule, the GI50 in the assay with 786-0 was 15.3 µM (inactive); with HCT-116, 17.1 µM (inactive); with OVCAR-4, 13.8 µM (inactive); with RPMI-8226, 21.1 µM (inactive); in the assay on KM12 it was 18.7 µM (inactive); with SF-539, 24.2 µM (inactive). Further, the GI50 was 16.1 µM (inactive) with SK-MEL-2; 17.3 µM (inactive) in the assay with COLO 205; 14.5 µM (inactive) in the assay on UO-31; 32.4 µM (inactive) in the assay on HOP-62; 14.5 µM (inactive) in the assay with U-251; 26.4 µM (inactive) with SK-OV-3. In addition, the GI50 is 13.6 µM (inactive) in the assay on MDA-MB-231 and 14.1 µM (inactive) in the assay on UACC-62.
Regarding `COc1ccc(CCNC(=O)Cc2ccccc2CO)cc1OC`, the GI50 with K562, in the assay on NCI-H23, in the assay on OVCAR-3, in the assay on OVCAR-8, in the assay on CAKI-1 and in the assay with MCF7 was > 100 µM (inactive) throughout. The GI50 in the assay with 786-0, in the assay with HCT-116, in the assay with OVCAR-4, in the assay with RPMI-8226, in the assay with KM12 and in the assay with SF-539 was > 100 µM (inactive) in each case. Besides, the GI50 in the assay on SK-MEL-2, in the assay on COLO 205, in the assay with UO-31, in the assay on HOP-62, in the assay with U-251 and in the assay with SK-OV-3 was > 100 µM (inactive) throughout. The GI50 in the assay on MDA-MB-231 and in the assay on UACC-62 was > 100 µM (inactive) in each case.

(Values after ChEMBL document CHEMBL1201862, “PubChem BioAssay data set” (2004).)
